Test results from US8338450B2, “Compounds as dipeptidyl peptidase IV (DPP IV) inhibitors” (Lupin Limited, priority 2007, dated 2012).
Structures can show the parent of a compound that is named as a salt.

The molecules below were run against T1, human recombinant DPP-IV (Homo sapiens, UniProt P27487) (assay: Inhibition of human recombinant DPP-IV (Gly-Pro-AMC hydrolysis, fluorometric)). Settings: compound 10 nM; relative to vehicle controls.
T1 construct: purchased R&D Systems, USA (or produced in-house)
Format: biochemical
Experimental: Inhibition of Human Recombinant DPP-IV
The proteolytic activity of human recombinant DPP-IV was determined by following the hydrolysis of Gly-Pro-7-amino-4-methylcoumarin (Gly-Pro-AMC) and the fluorometric quantitation of the liberated AMC. Assays were routinely carried out in 96-well flat-bottom black microwell plates. The reaction mixture (100 μl) contained 10 ng of human recombinant DPP-IV enzyme (produced in-house or procured from R&D Systems, USA) in the assay buffer (25 mM Tris-HCl, pH 7.4, 140 mM NaCl, 10 mM KCl and 0.1 mg/ml BSA) and 50 μM Gly-Pro-AMC. After incubation of assay plates at 30° C. for 30 min, the hydrolysis of Gly-Pro-AMC was monitored in a fluorescence microplate reader (Molecular Devices SpectraMax M5), with excitation and emission wavelengths set at 360 nm and 460 nm, respectively.
The inhibition of DPP-IV activity by test compounds was routinely performed by preincubating the enzyme with test compound (10 and 100 nM for primary screening and 8 concentrations from 0.1 to 1000 nM for the dose-response study) or vehicle (0.01% DMSO) for 15 min at 30° C., in a total volume of 90 μl. Test compounds were dissolved in DMSO at a concentration of 10 mM and serially diluted further in assay buffer. The enzyme reaction was initiated by the addition of Gly-Pro-AMC, followed by incubation of assay plates for 30 min at 30° C. and the liberated AMC was measured as described above. A known inhibitor of DPP-IV (positive control) was always included in the assay. Test compounds at various concentrations were always evaluated in duplicate, along with substrate blanks, vehicle controls and positive controls.
The results are expressed as percent inhibition of the enzyme activity relative to vehicle controls. Dose-response studies were conducted for those compounds exerting ≧50% inhibition of activity at 10 nM in primary screening. IC50, defined as the inhibitor concentration which caused a 50% decrease of the activity under assay conditions, was computed using GraphPad Prism software, version 5.0.
The DPP-IV inhibition data (expressed either as IC50 in nanomolar or percent inhibition at a particular compound concentration) is presented in Table 1.

T1 sequence (P27487 whole entry): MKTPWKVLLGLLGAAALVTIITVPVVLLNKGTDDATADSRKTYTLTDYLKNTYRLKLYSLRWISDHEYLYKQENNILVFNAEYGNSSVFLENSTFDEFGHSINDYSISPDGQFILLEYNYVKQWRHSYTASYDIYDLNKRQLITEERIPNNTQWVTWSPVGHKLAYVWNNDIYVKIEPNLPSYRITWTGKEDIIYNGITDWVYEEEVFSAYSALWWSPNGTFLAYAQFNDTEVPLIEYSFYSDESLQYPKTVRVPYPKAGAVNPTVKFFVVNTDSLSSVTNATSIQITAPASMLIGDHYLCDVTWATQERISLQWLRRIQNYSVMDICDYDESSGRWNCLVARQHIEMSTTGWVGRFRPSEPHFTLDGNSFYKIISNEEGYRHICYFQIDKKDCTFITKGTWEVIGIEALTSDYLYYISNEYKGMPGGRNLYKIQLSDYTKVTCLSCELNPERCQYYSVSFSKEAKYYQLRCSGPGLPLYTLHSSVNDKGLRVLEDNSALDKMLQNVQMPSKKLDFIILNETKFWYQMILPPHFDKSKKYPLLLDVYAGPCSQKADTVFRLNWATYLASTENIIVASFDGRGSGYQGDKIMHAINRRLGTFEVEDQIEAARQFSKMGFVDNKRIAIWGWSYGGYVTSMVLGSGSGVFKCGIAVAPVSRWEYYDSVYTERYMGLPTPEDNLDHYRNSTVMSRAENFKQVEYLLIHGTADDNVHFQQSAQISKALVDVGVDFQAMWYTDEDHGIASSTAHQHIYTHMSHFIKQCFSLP

Structure (SMILES) | % inhibition at 10 nM [% inhibition at 10 nM]
N#C[C@@H]1C[C@@H]2C[C@@H]2N1C(=O)[C@@H](N)C1CC2CCC(C1)N2CC1CCCCC1.O=C(O)C(F)(F)F (stereo partly drawn) [Compound 48, (1S,3S,5S)-2-{(2S)-2-Amino-2-[8-(cyclohexylmethyl)-8-aza-bicyclo[3.2.1]oct-3-yl]-exo-ethanoyl}-2-azabicyclo-[3.1.0]hexane-3-carbonitrile trifluoroacetic acid salt] | 22
N#C[C@@H]1C[C@@H]2C[C@@H]2N1C(=O)[C@H](N)C1CC2CCC(C1)N2C(=O)c1ccnc(F)c1.O=C(O)C(F)(F)F (stereo partly drawn) [Compound 31, (1S,3S,5S)-2-{(2R)-2-Amino-2-[8-(2-fluoropyridine-4-carbonyl)-8-aza-bicyclo[3.2.1]oct-3-yl]-exo-ethanoyl}-2-azabicyclo[3.1.0]hexane-3-carbonitrile trifluoroacetic acid salt] | 6
N[C@H](C(=O)N1CCC[C@H]1CO)C1CC2CCC(C1)N2C(=O)c1ccc2c(c1)OCO2.O=C(O)C(F)(F)F (stereo partly drawn) [Compound 14, (2S)-{(2S)-1-[(2S)-2-Amino-2-(8-(benzo[1,3]dioxole-5-carbonyl)-8-aza-bicyclo[3.2.1]-oct-3-yl)-exo-acetyl]-pyrrolidin-2-yl}methanol trifluoroacetic acid salt] | 12
N#C[C@H]1C[C@H]2C[C@H]2N1C(=O)[C@H](N)C1CC2CCC(C1)N2C(=O)c1ccnc(F)c1.O=C(O)C(F)(F)F (stereo partly drawn) [Compound 30, (1R,3R,5R)-2-{(2R)-2-Amino-2-[8-(2-fluoropyridine-4-carbonyl)-8-aza-bicyclo[3.2.1]oct-3-yl]-exo-ethanoyl}-2-azabicyclo[3.1.0]hexane-3-carbonitrile trifluoroacetic acid salt] | 0
COc1ccccc1NC(=S)N1C2CCC1CC([C@H](N)C(=O)N1[C@H](C#N)C[C@@H]3C[C@@H]31)C2.O=C(O)C(F)(F)F (stereo partly drawn) [Compound 68, (1S,3S,5S)-2-{(2S)-2-Amino-2-[8-(2-methoxyphenylthiocarbamoyl)-8-aza-bicyclo[3.2.1]oct-3-yl]-exo-ethanoyl}-2-azabicyclo[3.1.0]-hexane-3-carbonitrile trifluoroacetic acid salt] | 16

Same assay, conditions: compound 100 nM; relative to vehicle controls

Structure (SMILES) | % inhibition at 100 nM [% inhibition at 100 nM]
N#C[C@H]1C[C@H]2C[C@H]2N1C(=O)[C@H](N)C1CC2CCC(C1)N2C(=O)c1cnccn1.O=C(O)C(F)(F)F (stereo partly drawn) [Compound 38, (1R,3R,5R)-2-{(2R)-2-Amino-2-[8-(pyrazin-2-carbonyl)-8-aza-bicyclo[3.2.1]oct-3-yl]-exo-ethanoyl}-2-azabicyclo[3.1.0]hexane-3-carbonitrile trifluoroacetic acid salt] | 16

Same assay, conditions: compound 1000 nM; relative to vehicle controls; read-out: % inhibition at 1000 nM

Structure (SMILES) | inhibition at 1 µM [%]
N[C@H](C(=O)N1[C@H](C(=O)O)C[C@@H]2C[C@@H]21)C1CC2CCC(C1)N2C(=O)c1ccc2c(c1)OCO2 (stereo partly drawn) [Compound 46, (1S,3S,5S)-2-{(2S)-2-Amino-2-[8-(benzo[1,3]-dioxole-5-carbonyl)-8-aza-bicyclo[3.2.1]-oct-3-yl]-exo-ethanoyl}-2-azabicyclo[3.1.0]hexane-3-carboxylic acid hydrochloride] | 13

Same assay, conditions: human recombinant DPP-IV, 50 μM Gly-Pro-AMC, 30 min at 30° C.

Structure (SMILES) | IC50 [nM]
N#C[C@@H]1CCCN1C(=O)[C@@H](N)C1CC2CCC(C1)N2Cc1cc(F)c(F)cc1F (stereo partly drawn) [Compound 9, (2S)-1-{(2S)-2-Amino-2-[8-(2,4,5-trifluorobenzyl)-8-aza-bicyclo[3.2.1]oct-3-yl]-exo-ethanoyl}-pyrrolidin-2-carbonitrile trifluoroacetic acid salt] | 3.13
N#C[C@@H]1CCCN1C(=O)[C@@H](N)C1CC2CCC(C1)N2C(=O)c1ccncc1 (stereo partly drawn) [Compound 4, (2S)-1-{(2S)-2-Amino-2-[8-(pyridine-4-carbonyl)-8-aza-bicyclo[3.2.1]oct-3-yl]-exo-ethanoyl}-pyrrolidin-2-carbonitrile trifluoroacetic acid salt] | 1.03
N#C[C@@H]1C[C@H](F)CN1C(=O)[C@@H](N)C1CC2CCC(C1)N2Cc1cc(F)c(F)cc1F (stereo partly drawn) [Compound 19, (2S,4S)-1-{(2S)-2-Amino-2-[8-(2,4,5-trifluorobenzyl)-8-aza-bicyclo[3.2.1]oct-3-yl]-exo-ethanoyl}-4-fluoro-pyrrolidin-2-carbonitrile trifluoroacetic acid salt] | 6.25
N#C[C@@H]1CCCN1C(=O)[C@@H](N)C1CC2CCC(C1)N2C(=O)C12CC3CC(CC(C3)C1)C2 (stereo partly drawn) [Compound 3, (2S)-1-{(2S)-2-Amino-2-[8-(adamantane-1-carbonyl)-8-aza-bicyclo[3.2.1]oct-3-yl]-exo-ethanoyl}-pyrrolidin-2-carbonitrile trifluoroacetic acid salt] | 6.67
N#C[C@@H]1C[C@H](F)CN1C(=O)[C@@H](N)C1CC2CCC(C1)N2C(=O)c1cc(F)ccc1F (stereo partly drawn) [Compound 17, (2S,4S)-1-{(2S)-2-Amino-2-[8-(2,5-difluorobenzoyl)-8-aza-bicyclo[3.2.1]oct-3-yl]-exo-ethanoyl}-4-fluoro-pyrrolidin-2-carbonitrile trifluoroacetic acid salt] | 2.4
N#C[C@@H]1C[C@@H]2C[C@@H]2N1C(=O)[C@@H](N)C1CC2CCC(C1)N2C(=O)c1ccc(C(F)(F)F)cc1 (stereo partly drawn) [Compound 26, (1S,3S,5S)-2-{(2S)-2-Amino-2-[8-(4-trifluoromethylbenzoyl)-8-aza-bicyclo[3.2.1]oct-3-yl]-exo-ethanoyl}-2-azabicyclo[3.1.0]hexane-3-carbonitrile trifluoroacetic acid salt] | 8.9
N#C[C@@H]1C[C@H](F)CN1C(=O)[C@@H](N)C1CC2CCC(C1)N2C(=O)c1cc(F)c(F)cc1F (stereo partly drawn) [Compound 16, (2S,4S)-1-{(2S)-2-Amino-2-[8-(2,4,5-trifluorobenzoyl)-8-aza-bicyclo[3.2.1]oct-3-yl]-exo-ethanoyl}-4-fluoro-pyrrolidin-2-carbonitrile trifluoroacetic acid salt] | 2.9
CS(=O)(=O)c1ccc(N2C3CCC2CC([C@H](N)C(=O)N2[C@H](C#N)C[C@@H]4C[C@@H]42)C3)cc1 (stereo partly drawn) [Compound 53, (1S,3S,5S)-2-{(2S)-2-Amino-2-[8-(4-methanesulfonylphenyl)-8-aza-bicyclo[3.2.1]oct-3-yl]-exo-ethanoyl}-2-azabicyclo[3.1.0]hexane-3-carbonitrile trifluoroacetic acid salt] | 19.7
N#C[C@@H]1C[C@@H]2C[C@@H]2N1C(=O)[C@@H](N)C1CC2CCC(C1)N2C(=O)c1cccs1 (stereo partly drawn) [Compound 34, (1S,3S,5S)-2-{(2S)-2-Amino-2-[8-(thiophene-2-carbonyl)-8-aza-bicyclo[3.2.1]oct-3-yl]-exo-ethanoyl}-2-azabicyclo[3.1.0]hexane-3-carbonitrile trifluoroacetic acid salt] | 12.9
N#C[C@@H]1CCCN1C(=O)[C@@H](N)C1CC2CCC(C1)N2 (stereo partly drawn) [Compound 8, (2S)-1-{(2S)-2-Amino-2-[8-aza-bicyclo[3.2.1]oct-3-yl]-exo-ethanoyl}-pyrrolidin-2-carbonitrile trifluoro acetic acid salt] | 6.84
CC(=O)N1CCC(C(=O)N2C3CCC2CC([C@H](N)C(=O)N2[C@H](C#N)C[C@@H]4C[C@@H]42)C3)CC1 (stereo partly drawn) [Compound 69, (1S,3S,5S)-2-{(2S)-2-Amino-2-[8-(1-acetyl-piperidin-4-carbonyl)-8-aza-bicyclo[3.2.1]oct-3-yl]-exo-ethanoyl}-2-azabicyclo[3.1.0]hexane-3-carbonitrile trifluoroacetic acid salt] | 13

Same assay, conditions: read-out: % inhibition at 10 nM

Structure (SMILES) | inhibition at 0.01 µM [%]
N[C@H](C(=O)N1CC(F)C1)C1CC2CCC(C1)N2C(=O)c1ccncc1F (stereo partly drawn) [Compound 62, {(2S)-2-Amino-2-[8-(3-fluoropyridine-4-carbonyl)-8-aza-bicyclo[3.2.1]-oct-3-yl]-exo-ethanoyl}-3-fluoroazetidine trifluoroacetic acid salt] | 12

Same assay, conditions: read-out: % inhibition at 1000 nM

Structure (SMILES) | inhibition at 1 µM [%]
N[C@H](C(=O)N1CCC[C@H]1C(=O)O)C1CC2CCC(C1)N2C(=O)c1ccc(C(F)(F)F)cc1 (stereo partly drawn) [Compound 11, (2S)-1-{(2S)-2-amino-2-[8-(4-trifluoromethyl-benzoyl)-8-aza-bicyclo[3.2.1]-oct-3-yl]-exo-ethanoyl}-pyrrolidin-2-carboxylic acid trifluoroacetic acid salt] | 29
NC(=O)[C@@H]1C[C@@H]2C[C@@H]2N1C(=O)[C@@H](N)C1CC2CCC(C1)N2C(=O)c1ccc2c(c1)OCO2 (stereo partly drawn) [Compound 45, (1S,3S,5S)-2-{(2S)-2-Amino-2-[8-(benzo-[1,3]dioxole-5-carbonyl)-8-aza-bicyclo[3.2.1]oct-3-yl]-exo-ethanoyl}-2-azabicyclo[3.1.0]-hexane-3-carboxamide trifluoro acetic acid salt] | 12
